# Results from patent US10123537B2, “Amide compound or salt thereof, agricultural and horticultural insecticide and microbicide comprising the compound, and method for using the insecticide and microbicide” (NIHON NOHYAKU CO., LTD., priority 2013, dated 2018).
# How the values were obtained:
# Tetranychus urticae = experiment: Acaricidal test on Tetranychus urticae; assay type: in vivo; settings: 500 ppm, kidney bean leaf disks dipped about 30 seconds, female adults, two days later, 25° C.
# Text: Acaricidal Test on Tetranychus urticae
# Meloidogyne incognita = experiment: Nematicidal test on Meloidogyne incognita; assay type: in vivo; settings: 500 ppm, 1 mL soil drench, potted melon seedlings, 8 days after inoculation
# Experimental: Nematicidal Test on Meloidogyne incognita
# Agrochemical formulations containing different amide compounds represented by the general formula (I) of the present invention or salts thereof as an active ingredient were separately diluted to a concentration of 500 ppm. The diluted agrochemical formulations (1 mL) were drenched into the soil around the foot of potted melon seedlings. At one day after the agrochemical treatment, an aqueous suspension of Meloidogyne incognita (about 500 worms/mL) was drenched into the soil for inoculation both in a treatment plot and in a non-treatment plot. The inoculated pots were kept in a greenhouse at 25° C. At 8 days after the inoculation, the root of each seedling was washed with water, the number of root nodules was counted, and the nematicidal effect was evaluated according to the following criteria.
# A: the percentage of the number of root nodules relative to the non-treatment plot is 0%.
# B: the percentage of the number of root nodules relative to the non-treatment plot is 1 to 10%.
# C: the percentage of the number of root nodules relative to the non-treatment plot is 11 to 20%.
# D: the percentage of the number of root nodules relative to the non-treatment plot is 21 to 50%.
# Laodelphax striatella = experiment: Insecticidal test on Laodelphax striatella; assay type: in vivo; settings: Laodelphax striatellus, 192 h, rice seedlings dipped 30 seconds, 3rd-instar larvae, 8 days after inoculation, read-out: insecticidal effect (corrected mortality rate) activity level
# Text: Insecticidal Test on Laodelphax striatella
# The amide compounds represented by the general formula (I) of the present invention or salts thereof were separately dispersed in water and diluted to 500 ppm, and rice plant seedlings (variety: Nihonbare) were dipped in the agrochemical dispersions for 30 seconds. After air-dried, each seedling was put into a separate glass test tube and inoculated with ten 3rd-instar larvae of Laodelphax striatella, and then the glass test tubes were capped with cotton plugs. At 8 days after the inoculation, the numbers of surviving larvae and dead larvae were counted, the corrected mortality rate was calculated according to the formula shown below, and the insecticidal effect was evaluated according to the criteria of Test Example 1. Corrected mortality rate (%)=100×(Survival rate in a non-treatment plot−Survival rate in a treatment plot)/Survival rate in a non-treatment plot
# Plutella xylostella = experiment: Insecticidal test on Plutella xylostella; assay type: in vivo; settings: 144 h, Chinese cabbage seedlings with laid eggs dipped about 30 seconds, 25° C., 6 days after dip treatment, read-out: insecticidal effect (corrected mortality rate, hatched larvae) activity level
# Text: Insecticidal Test on Plutella xylostella
# Adults of Plutella xylostella were released onto Chinese cabbage seedlings and allowed to lay eggs thereon. At 2 days after the release of the adults, the Chinese cabbage seedlings with laid eggs were dipped for about 30 seconds in agrochemical formulations diluted to 500 ppm, each of which contained a different amide compound represented by the general formula (I) of the present invention as an active ingredient. After air-dried, the seedlings were kept in a thermostatic chamber at 25° C. At 6 days after the dip treatment, the number of hatched larvae per plot was counted, the mortality rate was calculated according to the formula shown below, and the insecticidal effect was evaluated according to the criteria of Test Example 1. This test was conducted in triplicate using 10 adults of Plutella xylostella per plot. Corrected mortality rate (%)=100×(Number of hatched larvae in a non-treatment plot−Number of hatched larvae in a treatment plot)/Number of hatched larvae in a non-treatment plot
# [1] = test system: wheat powdery mildew fungus Erysiphe graminis; settings: 200 ppm, foliar application to wheat plants, 10 mL per pot, 7 days after inoculation
Compound,acaricidal effect (corrected mortality rate) activity level (Tetranychus urticae),nematicidal effect (number of root nodules relative to non-treatment plot) activity level (Meloidogyne incognita),mortality at 500 ppm (Laodelphax striatella),mortality at 500 ppm (Plutella xylostella),"control effect (control rate, lesion area) activity level [1]"
CCSc1cc(C(F)(F)F)ccc1C(=O)N(CC)c1ccc(C(F)(F)F)cn1 [Compound 1-4],D or higher,D or higher,–,–,–
"CCS(=O)(=O)c1cc(C(F)(F)F)ccc1C(=O)N(C)c1ccc(C(F)(F)F)cn1 [Compound 1-3, 2-(ethylsulfonyl)-N-methyl-4-(trifluoromethyl)-N-(5-(trifluoromethyl)pyridin-2-yl)benzamide]",–,D or higher,100%,100%,–
CCSc1cc(C(F)(F)F)ccc1C(=O)N(C)c1ccc(Cl)cc1 [Compound 3-21],D or higher,D or higher,–,–,–
CCS(=O)(=O)c1cc(C(F)(F)F)ccc1C(=O)N(c1ccc(C(F)(F)F)cn1)C1CC1 [Compound 1-9],D or higher,D or higher,–,–,–
CC[S+]([O-])c1cc(C(F)(F)F)ccc1C(=O)N(C)c1ccc(C(F)(F)F)cc1 (stereo not shown) [Compound 3-2],D or higher,D or higher,–,–,–
CCSc1cc(C(F)(F)F)ccc1C(=O)N(C)c1ccc(OC(F)(F)F)cc1 [Compound 3-12],–,D or higher,–,–,D or higher
CCSc1cc(C(F)(F)F)ccc1C(=O)N(C)c1ccc(C(C(F)(F)F)C(F)(F)F)cc1 [Compound 3-10],D or higher,D or higher,–,–,–
CCS(=O)(=O)c1cc(C(F)(F)F)ccc1C(=O)N(C)c1ccc(C(OC)(C(F)(F)F)C(F)(F)F)cc1 [Compound 3-6],D or higher,D or higher,–,–,D or higher
CCS(=O)(=O)c1cc(C(F)(F)F)ccc1C(=O)N(C)c1ccc(C(F)(F)C(F)(F)F)cn1 [Compound 1-26],D or higher,D or higher,–,–,–
CCS(=O)(=O)c1cc(C(F)(F)F)ccc1C(=O)N(C)c1ccc(C(F)(C(F)(F)F)C(F)(F)F)cn1 [Compound 1-21],–,D or higher,–,–,D or higher
CC[S+]([O-])c1cc(C(F)(F)F)ccc1C(=O)N(c1ccc(C(F)(F)F)cn1)C1CC1 (stereo not shown) [Compound 1-8],D or higher,D or higher,–,–,–
CCSc1cc(C(F)(F)F)cnc1C(=O)N(CC)c1ccc(C(F)(F)F)cn1 [Compound 1-10],–,D or higher,–,–,D or higher
CCN(C(=O)c1ccc(C(F)(F)F)cc1S(=O)(=O)CC)c1ccc(C(F)(F)F)cn1 [Compound 1-6],D or higher,D or higher,–,–,D or higher
"CCSc1cc(C(F)(F)F)ccc1C(=O)N(C)c1ccc(C(F)(F)F)cn1 [Compound 1-1, 2-(ethylthio)-N-methyl-4-(trifluoromethyl)-N-(5-(trifluoromethyl)pyridin-2-yl)benzamide]",D or higher,D or higher,100%,100%,–
CCSc1cc(C(F)(F)F)ccc1C(=O)N(C)c1ccc(C(OC)(C(F)(F)F)C(F)(F)F)cc1 [Compound 3-4],D or higher,–,–,–,–
CCSc1cc(C(F)(F)F)ccc1C(=O)Nc1ccc(C(C(F)(F)F)C(F)(F)F)cc1 [Compound 4-5],–,D or higher,–,–,D or higher
CCSc1cc(C(F)(F)F)ccc1C(=O)N(C)c1ccc(C(F)(F)C(F)(F)F)cn1 [Compound 1-25],D or higher,D or higher,–,–,–
"CC[S+]([O-])c1cc(C(F)(F)F)ccc1C(=O)N(C)c1ccc(C(F)(F)F)cn1 (stereo not shown) [Compound 1-2, 2-(ethylsulfinyl)-N-methyl-4-(trifluoromethyl)-N-(5-(trifluoromethyl)pyridin-2-yl)benzamide]",–,D or higher,100%,100%,–
CCN(C(=O)c1ccc(C(F)(F)F)cc1[S+]([O-])CC)c1ccc(C(F)(F)F)cn1 (stereo not shown) [Compound 1-5],D or higher,D or higher,–,–,D or higher
CCS(=O)(=O)c1cc(C(F)(F)F)ccc1C(=O)N(C)c1ccc(C(F)(F)F)cc1 [Compound 3-3],D or higher,D or higher,–,–,D or higher
CCS(=O)(=O)c1cc(C(F)(F)F)ccc1C(=O)N(C)c1ccc(C(C(F)(F)F)C(F)(F)F)cc1 [Compound 3-11],D or higher,D or higher,–,–,–
